Results published in patent US7807701B2, “Dibenzylamine compounds and pharmaceutical use thereof” (Japan Tobacco Inc., priority 2002, dated 2010).
Counter-ions that a name gives are not always drawn.

Target: T1, CETP (Homo sapiens, UniProt P11597)
T1 construct: The donor lipoprotein obtained above was added to plasma of healthy subject; from tissue; host or cells: whole plasma of healthy subject
T1 sequence (P11597 18-493): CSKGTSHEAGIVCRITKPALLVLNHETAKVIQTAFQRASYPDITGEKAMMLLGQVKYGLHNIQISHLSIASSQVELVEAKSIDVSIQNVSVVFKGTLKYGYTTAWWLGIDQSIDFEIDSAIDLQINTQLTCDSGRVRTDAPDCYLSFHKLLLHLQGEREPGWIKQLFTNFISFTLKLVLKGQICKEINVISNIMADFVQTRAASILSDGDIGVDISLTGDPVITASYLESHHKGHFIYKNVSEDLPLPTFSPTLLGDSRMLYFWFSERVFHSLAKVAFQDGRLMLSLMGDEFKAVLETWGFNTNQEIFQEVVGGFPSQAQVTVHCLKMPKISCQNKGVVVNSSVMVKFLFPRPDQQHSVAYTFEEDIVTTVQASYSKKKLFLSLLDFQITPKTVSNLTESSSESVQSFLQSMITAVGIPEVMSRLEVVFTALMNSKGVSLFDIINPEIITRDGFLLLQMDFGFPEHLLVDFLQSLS
Assay: Inhibitory effect in vitro on CETP activity in total plasma
Type: biochemical
Conditions: plasma of healthy subject with [3H]CE-HDL3, 37° C., 4 hr; average values
Procedure: Potassium bromide (KBr) was added to plasma (40 mL) of healthy subject and the mixture was adjusted to have a specific density d=1.125 g/mL. The mixture was subjected to density gradient centrifugation (227,000×g, 4° C., 17 hr) and a fraction showing a specific density of d>1.125 g/mL (HDL3 fraction) was harvested. The obtained fraction was dialyzed against PBS solution [10 mmol/L Na2HPO4; 10 mmol/L NaH2PO4; 0.15 mol/L NaCl; […] (pH 7.4)]. Then, tritium-labeled cholesterol (37 MBq) was dissolved in 95% ethanol, gradually added to the above-mentioned HDL3 fraction with stirring and incubated at 37° C. for 18 hr. [By this operation, tritium-labeled cholesterol was esterified by the action of lecithin acyl transferase (LCAT) present on the HDL3 surface and taken up into HDL3 as tritium-labeled cholesteryl ester ([^3H]CE)]. After incubation, KBr was added, the mixture was adjusted to have a specific density d=1.21 g/mL, subjected to density gradient centrifugation (227,000×g, 4° C., 17 hr) and a fraction of specific density […] was harvested. The obtained fraction was dialyzed against the aforementioned PBS solution to give HDL3 incorporating [^3H]CE ([^3H]CE-HDL3, specific density: 1.125<d<1.21, specific activity: 10,000 dpm/μL), which was used as a donor lipoprotein.
The donor lipoprotein obtained above was added to plasma of healthy subject to prepare a [^3H]CE-HDL3-containing plasma (1,000 dpm/μL). The compound was dissolved in dimethyl formamide. A solution of the compound or a solvent alone (2 μL) and the [^3H]CE-HDL3-containing plasma (100 μL) were added into a microtube, and this was incubated at 37° C. or 4° C. for 4 hr. After ice-cooling, TBS solution [100 μL, 20 mmol/L Tris; 0.15 mol/L NaCl (pH 7.4)] containing 1 mol/L magnesium chloride and 2% dextran sulfate was added to each microtube and the mixture was thoroughly stirred. After keeping at 4° C. for 30 min, the mixture was centrifuged (10,000×g, 4° C., 10 min), and the radioactivity in the obtained supernatant (HDL fraction) was measured with a scintillation counter. […] The concentration of the compound necessary for inhibiting the CETP activity by 50% was calculated as an IC50 value.

IC50 | Structure (SMILES)
280 nM | CCN(CC(C)(C)CCC(=O)O)c1cc2c(cc1CN(Cc1cc(C(F)(F)F)cc(C(F)(F)F)c1)c1nnn(C)n1)CCC2 [Example 114, 5-[N-(6-{[N′-[3,5-bis(trifluoromethyl)benzyl]-N′-(2-methyl-2H-tetrazol-5-yl)amino]methyl}indan-5-yl)-N-ethylamino]-4,4-dimethylpentanoic acid hydrochloride]
600 nM | CCN(CCC(C)(C)CC(=O)O)c1ccc(C(F)(F)F)cc1CN(Cc1cc(C(F)(F)F)cc(C(F)(F)F)c1)c1nnn(C)n1 [Example 105, 5-[N-(2-{[N′-[3,5-bis(trifluoromethyl)benzyl]-N′-(2-methyl-2H-tetrazol-5-yl)amino]methyl}-4-trifluoromethylphenyl)-N-ethylamino]-3,3-dimethylpentanoic acid hydrochloride]
160 nM | CCN(C[C@H]1CC[C@H](CC(N)=O)CC1)c1cc2c(cc1CN(Cc1cc(C(F)(F)F)cc(C(F)(F)F)c1)c1nnn(C)n1)OC(F)(F)C(F)(F)O2 [Example 138, trans-2-(4-{[N-(7-{[N′-[3,5-bis(trifluoromethyl)benzyl]-N′-(2-methyl-2H-tetrazol-5-yl)amino]methyl}-2,2,3,3-tetrafluoro-2,3-dihydrobenzo[1,4]dioxin-6-yl)-N-ethylamino]methyl}cyclohexyl)acetamide hydrochloride]

The next lines start with the molecule.

Structure (SMILES) | IC50
CCN(CC1CCCC1)c1cc2c(cc1CN(Cc1cc(C(F)(F)F)cc(C(F)(F)F)c1)c1ncn(C)n1)CCC2 [Example 12, N-[3,5-bis(trifluoromethyl)benzyl]-N-[6-(N′-cyclopentylmethyl-N′-ethylamino)indan-5-ylmethyl]-(1-methyl-1H-[1,2,4]triazol-3-yl)amine] | 250 nM
CCN(C[C@H]1CC[C@H](C(=O)O)CC1)c1cc2c(cc1CN(Cc1cc(C#N)cc(C(F)(F)F)c1)c1ccn(C)n1)CCCC2 [Example 45, trans-4-{[N-(3-{[N′-(3-cyano-5-trifluoromethylbenzyl)-N′-(1-methyl-1H-pyrazol-3-yl)amino]methyl}-5,6,7,8-tetrahydronaphthalen-2-yl)-N-ethylamino]methyl}cyclohexanecarboxylic acid hydrochloride] | 490 nM
CCN(C[C@H]1CC[C@H](C(=O)O)CC1)c1cc2c(cc1CN(Cc1cc(C#N)cc(C(F)(F)F)c1)c1ncn(C)n1)CCCC2 [Example 70, trans-4-{[N-(3-{[N′-(3-cyano-5-trifluoromethylbenzyl)-N′-(1-methyl-1H-[1,2,4]triazol-3-yl)amino]methyl}-5,6,7,8-tetrahydronaphthalen-2-yl)-N-ethylamino]methyl}cyclohexanecarboxylic acid] | 540 nM
CCN(C[C@H]1CC[C@H](C(=O)O)CC1)c1cc2c(cc1CN(Cc1cc(C#N)cc(C(F)(F)F)c1)c1nnn(C)n1)CCCC2 [Example 68, trans-4-{[N-(3-{[N′-(3-cyano-5-trifluoromethylbenzyl)-N′-(2-methyl-2H-tetrazol-5-yl)amino]methyl}-5,6,7,8-tetrahydronaphthalen-2-yl)-N-ethylamino]methyl}cyclohexanecarboxylic acid hydrochloride] | 280 nM
CCN(C[C@H]1CC[C@H](C(=O)OC)CC1)c1cc2c(cc1CN(Cc1cc(C(F)(F)F)cc(C(F)(F)F)c1)c1ccn(C)n1)CCCC2 [Example 42, methyl trans-4-{[N-(3-{[N′-[3,5-bis(trifluoromethyl)benzyl]-N′-(1-methyl-1H-pyrazol-3-yl)amino]methyl}-5,6,7,8-tetrahydronaphthalen-2-yl)-N-ethylamino]methyl}cyclohexanecarboxylate hydrochloride] | 700 nM
CCN(CC1CCCC1)c1cc2c(cc1CN(Cc1cc(C(F)(F)F)cc(C(F)(F)F)c1)c1cc(C)no1)CCC2 [Example 26, N-[3,5-bis(trifluoromethyl)benzyl]-N-[6-(N′-cyclopentylmethyl-N′-ethylamino)indan-5-ylmethyl]-(3-methylisoxazol-5-yl)amine hydrochloride] | 470 nM
